Assay results published in patent publication EP0738149B1 (priority 1994, dated 1995).
Where two headings read alike, the source gives them in different places.

Key:
mice = settings: Mus musculus, ip, read-out: MICE scMet ED50, mice, i.p.; Table 16
rats [1] = assay: Electrically kindled rat model of epilepsy, p.o.; assay type: in vivo; settings: po, read-out: ED50 (prevented seizures)
Description: The rat electrical kindling model of epilepsy has been known to show efficacy of antiepileptic agents against complex partial seizures that evolve into generalized motor seizures. In these tests, rats were electrically stimulated via corneal electrodes twice daily for approximately 5 days and then once daily for an additional 10 days. Once the seizure criteria, as described by R.J. Racine, et al., Electroenceph. Clin. Neurophysiol. 32: 281-294 (1972), were met, the test substance was administered p.o. to rats, and the rat electrically stimulated, and observed for the presence or absence of a seizure.

rats [2] = settings: Rattus norvegicus, po, read-out: RATS scMet ED50
[3] = system: mechanically dissociated neonatal rat cerebellum; assay: Enhancement of cell survival in cultures of neonatal rat cerebellum (no NMDA); assay type: cell-based; settings: 24 hours after addition, percentage of the number of control cells on the fourth day
Procedure: The cerebellum was aseptically dissociated from 6 or 7-day old rat pups and placed in a 15ml sterile plastic conical tube containing 3ml of Dulbecco's modified Eagle's medium (DMEM) with a high glucose concentration ([…]) and 2mM (v/v) L-glutamine and an antibiotic antimitotic mixture. The cerebella were then dissociated after 20-25 passages through a sterile 13 gauge, 10cm long stainless steel needle attached to a 5ml syringe with an inserted 45 micrometer pore nylon sieve. The dissociated cells were centrifuged at 200g for 5 minutes. […] Cell viability was determined by the tryptan blue exclusion test.
Cells were plated at a density of 200/mm^2 on poly-L-lysine coated surfaces. Poly-L-lysine coated glass coverslips were prepared at least one hour in advance of plating by immersing sterile coverslips in sterile distilled water solution containing 15 microgram/ml poly-L-lysine, and washing in sterile water just prior to use. […] After three days in culture, the media was replaced with media containing the desired test compound. Each test compound was tested in duplicate. Toxic-dose response was determined for each compound.
Cell cultures were grown as described above but in the absence of NMDA and after 3 days a dose of test compound was added. Cell survival was monitored as described above.

rats [4] = assay: Closed head injury in rats: brain oedema (water content), Experiments 4A-4E; assay type: in vivo; settings: Exp 4A; relative to normal brain water content of 78.5 %
Procedure: After the second evaluation of motor function, the animals were sacrificed and the brains were removed. A piece of tissue was weighed to yield a wet weight(WW), then dried in an oven for 24 hours at 95C and re-weighed to yield a dry weight(DW). Percentage water content in the tissue was calculated as (WW-DW)x100/WW.

Compound	ED50 (mice) [mg/kg]	ED50 (rats [1]) [mg/kg]	ED50 (rats [2]) [mg/kg]	% ENHANCED SURVIVAL ([3]; 0.01 µM) [%]	% ENHANCED SURVIVAL ([3]; 0.10 µM) [%]	% ENHANCED SURVIVAL ([3]; 1.00 µM) [%]	reduction in trauma-induced oedema (rats [4]) [%]
CC(=O)N[C@@H]1CCc2ccccc21 [Example 18, (R)-N-Acetyl-1-aminoindan]	66	24.6	> 250	145	130	126	–
N[C@@H]1CCc2ccccc21 [R-AI, (R)-1-aminoindan]	–	–	–	–	–	–	50
